Like-named read-outs stand apart in the source and are kept apart here.
Legend:
HCV NS5B = target: T1, HCV NS5B (Hepatitis C virus genotype 1b, UniProt Q9WMX2); experiment: HCV NS5B RdRp enzyme assay; format: biochemical; conditions: HCV NS5B RdRp genotype 1b
T1 construct: The protein was expressed with an 18 amino acid C-terminal truncation to enhance the solubility; made in house; host or cells: E. coli BL21(DE3)
Experimental: HCV NS5B RdRp cloning, expression, and purification. The cDNA encoding the NS5B protein of HCV, genotype 1b, was cloned into the pET21a expression vector. The protein was expressed with an 18 amino acid C-terminal truncation to enhance the solubility. The E. coli competent cell line BL21(DE3) was used for expression of the protein. Cultures were grown at 37° C. for ˜4 hours until the cultures reached an optical density of 2.0 at 600 nm. The cultures were cooled to 20° C. and induced with 1 mM IPTG. Fresh ampicillin was added to a final concentration of 50 μg/ml and the cells were grown overnight at 20° C.
Cell pellets (3L) were lysed for purification to yield 15-24 mgs of purified NS5B. The lysis buffer consisted of 20 mM Tris-HCl, pH 7.4, 500 mM NaCl, 0.5% triton X-100, 1 mM DTT, 1 mM EDTA, 20% glycerol, 0.5 mg/ml lysozyme, 10 mM MgCl2, 15 ug/ml deoxyribonuclease I, and Complete TM protease inhibitor tablets (Roche). After addition of the lysis buffer, frozen cell pellets were resuspended using a tissue homogenizer. To reduce the viscosity of the sample, aliquots of the lysate were sonicated on ice using a microtip attached to a Branson sonicator. The sonicated lysate was centrifuged at 100,000×g for 1 hr at 4° C. and filtered through a 0.2 μm filter unit (Corning).
The protein was purified using three sequential chromatography steps: Heparin sepharose CL-6B, polyU sepharose 4B, and Hitrap SP sepharose (Pharmacia). The chromatography buffers were identical to the lysis buffer but contained no lysozyme, deoxyribonuclease I, MgCl2 or protease inhibitor and the NaCl concentration of the buffer was adjusted according to the requirements for charging the protein onto the column. Each column was eluted with a NaCl gradient which varied in length from 5-50 column volumes depending on the column type. After the final chromatography step, the resulting purity of the enzyme is >90% based on SDS-PAGE analysis. The enzyme was aliquoted and stored at −80° C.
Standard HCV NS5B RdRp enzyme assay. HCV RdRp genotype 1b assays were run in a final volume of 60 μl in 96 well plates (Costar 3912). The assay buffer is composed of 20 mM Hepes, pH 7.5, 2.5 mM KCl, 2.5 mM MgCl2, 1 mM DTT, 1.6 U RNAse inhibitor (Promega N2515), 0.1 mg/ml BSA (Promega R3961), and 2% glycerol. All compounds were serially diluted (3-fold) in DMSO and diluted further in water such that the final concentration of DMSO in the assay was 2%. HCV RdRp genotype 1b enzyme was used at a final concentration of 28 nM. A polyA template was used at 6 nM, and a biotinylated oligo-dT12 primer was used at 180 nM final concentration. Template was obtained commercially (Amersham 27-4110). Biotinylated primer was prepared by Sigma Genosys. 3H-UTP was used at 0.6 μCi (0.29 μM total UTP). Reactions were initiated by the addition of enzyme, incubated at 30° C. for 60 min, and stopped by adding 25 μl of 50 mM EDTA containing SPA beads (4 μg/μl, Amersham RPNQ 0007). Plates were read on a Packard Top Count NXT after >1 hr incubation at room temperature.
Modified HCV NS5B RdRp enzyme assay. A modified enzyme assay was performed essentially as described for the standard enzyme assay except for the following: The biotinylated oligo dT12 primer was precaptured on streptavidin-coated SPA beads by mixing primer and beads in assay buffer and incubating at room temperature for one hour. Unbound primer was removed after centrifugation. The primer-bound beads were resuspended in 20 mM Hepes buffer, pH 7.5 and used in the assay at final concentrations of 20 nM primer and 0.67 μg/μl beads. Order of addition in the assay: enzyme (14 nM) was added to diluted compound followed by the addition of a mixture of template (0.2 nM), 3H-UTP (0.6 μCi, 0.29 μM), and primer-bound beads, to initiate the reaction; concentrations given are final. Reactions were allowed to proceed for 4 hours at 30° C.
IC50 values for compounds were determined using seven different [I]. […]

HCV replicon = HCV replicon FRET / luciferase assay (NeoLuc); format: cell-based, HCV genotype 1b; conditions: Hepatitis C virus, HCV replicon cells
Source text: FRET Assay Preparation. To perform the HCV FRET screening assay, 96-well cell culture plates were used. The FRET peptide (Anaspec, Inc.) (Taliani et al., Anal. Biochem. 1996, 240, 60-67) contains a fluorescence donor, EDANS, near one end of the peptide and an acceptor, DABCYL, near the other end. The fluorescence of the peptide is quenched by […] resonance energy transfer (RET) between the donor and the acceptor, but as the NS3 protease cleaves the peptide the products are released from RET quenching and the fluorescence of the donor becomes apparent. The assay reagent was made as follows: 5× cell Luciferase cell culture lysis reagent from Promega (#E153A) diluted to 1× with dH2O, NaCl added to 150 mM final, the FRET peptide diluted to 20 μM final from a 2 mM stock.
To prepare plates, HCV replicon cells, with or without a Renilla luciferase reporter gene, were trypsinized and placed into each well of a 96-well plate with titrated test compounds added in columns 3 through 12; columns 1 and 2 contained a control compound (HCV protease inhibitor), and the bottom row contained cells without compound. The plates were then placed in a CO2 incubator at 37° C.
Assays. Subsequent to addition of the test compounds described above (FRET Assay Preparation), at various times the plate was removed and Alamar blue solution (Trek Diagnostics, #00-100) was added per well as a measure of cellular toxicity. After reading in a Cytoflour 4000 instrument (PE Biosystems), plates were rinsed with PBS and then used for FRET assay by the addition of 30 ul of the FRET peptide assay reagent described above (FRET Assay Preparation) per well. The plate was then placed into the Cytoflour 4000 instrument which had been set to 340 excite/490 emission, automatic mode for 20 cycles and the plate read in a kinetic mode. Typically, the signal to noise using an endpoint analysis after the reads was at least three-fold. Alternatively, after Alamar blue reading, plates were rinsed with PBS, 50 ul of DMEM (high glucose) without phenol red was added and plates were then used for luciferase assay using the Promega Dual-Glo Luciferase Assay System,
Compound analysis was deteiniined by quantification of the relative HCV replicon inhibition and the relative cytotoxicity values. To calculate cytoxicity values, the average Alamar Blue fluorescence signals from the control wells were set as 100% non-toxic. The individual signals in each of the compound test wells were then divided by the average control signal and multiplied by 100% to determine […]. To calculate the HCV replicon inhibition values, an average background value was obtained from the two wells containing the highest amount of HCV protease inhibitor at the end of the assay period. These numbers were similar to those obtained from naïve Huh-7 cells.
The background numbers were then subtracted from the average signal obtained from the control wells and this number was used as 100% activity. The individual signals in each of the compound test wells were then divided by the averaged control values after background subtraction and multiplied by 100% to determine percent activity. EC50 values for a protease inhibitor titration were calculated as the concentration which caused a 50% reduction in FRET or luciferase activity. The two numbers generated for the compound plate, percent cytoxicity and percent activity were used to determine compounds of interest for further analysis.

[1] = genotype 1b, read-out: NeoLuc EC50, Table 1, genotype 1b

T1 sequence (Q9WMX2 2420-2992): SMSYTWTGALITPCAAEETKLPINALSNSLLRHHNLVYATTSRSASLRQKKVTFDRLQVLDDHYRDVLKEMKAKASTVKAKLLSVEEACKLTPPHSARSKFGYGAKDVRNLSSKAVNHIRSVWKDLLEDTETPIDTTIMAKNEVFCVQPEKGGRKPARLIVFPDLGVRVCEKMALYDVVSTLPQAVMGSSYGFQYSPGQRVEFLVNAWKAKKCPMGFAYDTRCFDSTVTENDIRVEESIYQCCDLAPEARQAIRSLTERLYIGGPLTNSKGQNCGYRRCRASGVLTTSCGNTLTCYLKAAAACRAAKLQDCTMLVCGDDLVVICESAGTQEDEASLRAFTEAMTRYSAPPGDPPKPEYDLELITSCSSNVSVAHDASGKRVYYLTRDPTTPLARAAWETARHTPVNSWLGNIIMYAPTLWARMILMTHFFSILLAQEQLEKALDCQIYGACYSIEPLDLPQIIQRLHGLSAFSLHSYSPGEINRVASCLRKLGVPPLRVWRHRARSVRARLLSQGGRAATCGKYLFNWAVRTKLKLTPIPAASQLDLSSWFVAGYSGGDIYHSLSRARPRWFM

C=C(C)S(=O)(=O)NC(=O)c1ccc2c(C3CCCCC3)c3n(c2c1)C[C@@]1(C(=O)N2C[C@]4(COC)CN(C)C[C@]4(COC)C2)C[C@H]1c1cc(OC)ccc1-3
IC50 (HCV NS5B; Table 1): < 20 nM | EC50 (HCV replicon; [1]): 1.9 to 500 nM

COC[C@@]12CN(C)C[C@]1(COC)CN(C(=O)C13CC1c1cc(OC)ccc1-c1c(C4CCCCC4)c4ccc(C(=O)NS(=O)(=O)C(C)C)cc4n1C3)C2 (stereo partly shown)
IC50 (HCV NS5B; Table 1): 1.9 to 500 nM | EC50 (HCV replicon; [1]): 1.9 to 500 nM

C=C(C)S(=O)(=O)NC(=O)c1ccc2c(C3CCCCC3)c3n(c2c1)C[C@@]1(C(=O)N2CC45CNCC4(COC5)C2)C[C@H]1c1cc(OC)ccc1-3 (stereo partly shown)
IC50 (HCV NS5B; Table 1): < 2.3 nM | EC50 (HCV replicon; [1]): 1.9 to 500 nM

CCOCCN1CC23COCC2(C1)CN(C(=O)[C@]12C[C@H]1c1cc(OC)ccc1-c1c(C4CCCCC4)c4ccc(C(=O)NS(=O)(=O)C(C)C)cc4n1C2)C3 (stereo partly shown) [drawing 101]
IC50 (HCV NS5B; Table 1): 1.9 to 500 nM | EC50 (HCV replicon; [1]): 1.9 to 500 nM

CCOCCN1CC23COCC2(C1)CN(C(=O)[C@]12C[C@H]1c1cc(OC)ccc1-c1c(C4CCCCC4)c4ccc(C(=O)NS(=O)(=O)C(C)C)cc4n1C2)C3 (stereo partly shown) [drawing 112]
IC50 (HCV NS5B; Table 2): 1.9 nM | EC50 (HCV replicon; Table 2, read-out: NeoLuc EC50): 7.69 nM

COc1ccc2c(c1)[C@@H]1C[C@]1(C(=O)N1CC34CCC3(C1)CN(C1CC1)C4)Cn1c-2c(C2CCCCC2)c2ccc(C(=O)NS(=O)(=O)C(C)C)cc21 (stereo partly shown)
IC50 (HCV NS5B; Table 1): 1.9 to 500 nM | EC50 (HCV replicon; [1]): 1.9 to 500 nM

COc1ccc2c(c1)C1CC1(C(=O)N1CC34CNCC3(COC4)C1)Cn1c-2c(C2CCCCC2)c2ccc(C(=O)NS(=O)(=O)C(C)C)cc21 (stereo not shown)
IC50 (HCV NS5B; Table 1): 1.9 to 500 nM | EC50 (HCV replicon; [1]): 1.9 to 500 nM

CNC(=O)N1CC23COCC2(C1)CN(C(=O)[C@]12C[C@H]1c1cc(OC)ccc1-c1c(C4CCCCC4)c4ccc(C(=O)NS(=O)(=O)C(C)C)cc4n1C2)C3 (stereo partly shown)
IC50 (HCV NS5B; Table 1): 1.9 to 500 nM | EC50 (HCV replicon; [1]): 1.9 to 500 nM

C=C(/C=C1\C(=C)c2c(C3CCCCC3)c3ccc(C(=O)NS(=O)(=O)C(C)C)cc3n2CC2(C(=O)N3CC45CNCC4(CNC5)C3)CC12)OC (stereo not shown)
IC50 (HCV NS5B; Table 1): < 2.3 nM | EC50 (HCV replicon; [1]): > 1000 nM

COc1ccc2c(c1)C1CC1(C(=O)N1CC34COCC3(CN(C)C4)C1)Cn1c-2c(C2CCCCC2)c2ccc(C(=O)NS(=O)(=O)C(C)C)cc21 (stereo not shown)
IC50 (HCV NS5B; Table 1): < 2.3 nM | EC50 (HCV replicon; [1]): 1.9 to 500 nM

C=C(C)S(=O)(=O)NC(=O)c1ccc2c(C3CCCCC3)c3n(c2c1)C[C@@]1(C(=O)N2C[C@@]4(COC)CNC[C@@]4(COC)C2)C[C@H]1c1cc(OC)ccc1-3
IC50 (HCV NS5B; Table 1): < 20 nM | EC50 (HCV replicon; [1]): 500 to 1000 nM

COc1ccc2c(c1)C1CC1(C(=O)N1CC34CNCC3(COC4)C1)Cn1c-2c(C2CCCCC2)c2ccc(C(=O)NS(=O)(=O)CC(C)C)cc21 (stereo not shown)
IC50 (HCV NS5B; Table 1): 1.9 to 500 nM | EC50 (HCV replicon; [1]): 1.9 to 500 nM

CNC(=O)N1CC23COCC2(C1)CN(C(=O)[C@]12C[C@H]1c1cc(OC)ccc1-c1c(C4CCCCC4)c4ccc(C(=O)NS(=O)(=O)N(C)C)cc4n1C2)C3 (stereo partly shown)
IC50 (HCV NS5B; Table 1): 1.9 to 500 nM | EC50 (HCV replicon; [1]): 1.9 to 500 nM

CCN1CC23COCC2(C1)CN(C(=O)C12CC1c1cc(OC)ccc1-c1c(C4CCCCC4)c4ccc(C(=O)NS(=O)(=O)C(C)C)cc4n1C2)C3 (stereo not shown)
IC50 (HCV NS5B; Table 1): 1.9 to 500 nM | EC50 (HCV replicon; [1]): 1.9 to 500 nM

COC(=O)N1CC23COCC2(C1)CN(C(=O)[C@]12C[C@H]1c1cc(OC)ccc1-c1c(C4CCCCC4)c4ccc(C(=O)NS(=O)(=O)N(C)C)cc4n1C2)C3 (stereo partly shown)
IC50 (HCV NS5B; Table 1): > 1000 nM

COC[C@]12CNC[C@@]1(COC)CN(C(=O)C13CC1c1cc(OC)ccc1-c1c(C4CCCCC4)c4ccc(C(=O)NS(=O)(=O)C(C)C)cc4n1C3)C2 (stereo partly shown)
EC50 (HCV replicon; [1]): 1.9 to 500 nM

COc1ccc2c(c1)[C@@H]1C[C@]1(C(=O)N1CC34COCC3(C1)CN(C1CC1)C4)Cn1c-2c(C2CCCCC2)c2ccc(C(=O)NS(=O)(=O)N(C)C)cc21 (stereo partly shown)
IC50 (HCV NS5B; Table 1): 1.9 to 500 nM | EC50 (HCV replicon; [1]): 1.9 to 500 nM

COC(=O)N1CC23COCC2(C1)CN(C(=O)[C@]12C[C@H]1c1cc(OC)ccc1-c1c(C4CCCCC4)c4ccc(C(=O)NS(=O)(=O)C(C)C)cc4n1C2)C3 (stereo partly shown)
IC50 (HCV NS5B; Table 1): 1.9 to 500 nM

COc1ccc2c(c1)C1CC1(C(=O)N1CC34COCC3(CN(C)C4)C1)Cn1c-2c(C2CCCCC2)c2ccc(C(=O)NS(=O)(=O)CC(C)C)cc21 (stereo not shown)
IC50 (HCV NS5B; Table 1): 1.9 to 500 nM | EC50 (HCV replicon; [1]): 1.9 to 500 nM

COc1ccc2c(c1)C1CC1(C(=O)N1CC34CN(C)CC3(CN(C)C4)C1)Cn1c-2c(C2CCCCC2)c2ccc(C(=O)NS(=O)(=O)C(C)C)cc21 (stereo not shown)
IC50 (HCV NS5B; Table 1): < 2.3 nM | EC50 (HCV replicon; [1]): 1.9 to 500 nM
